Laboratory results reported in patent publication US10156521B2, “Red fluorescent aldehyde dehydrogenase (ALDH) substrate” (THE JOHNS HOPKINS UNIVERSITY, priority 2013, dated 2018).

Experiment: Excitation and emission profiles by spectrofluorophotometer
Type: physicochemical
Conditions: 100% ethanol
Method: FIGS. 2a-2c show the excitation and emission profiles of candidate ALDH substrates. (a) AldeRed 493 aldehyde diethyl acetal, (b) AldeRed 588 aldehyde diethyl acetal, (c) AldeRed 659 aldehyde diethyl acetal. All the compounds were dissolved in 100% ethanol and both excitation and emission profiles were measured in 100% ethanol. The emission spectrum was measured with excitation at 493 nm for AldeRed 493 aldehyde diethyl acetal, at 560 nm for AldeRed 588, and at 650 nm for AldeRed 659-A. Blue line: excitation spectrum; red line: emission spectrum;
Reagents and Analyses. BODIPY® 576/589 succinimidyl ester and BODIPY® 650/665 succinimidyl ester were purchased from Life Technologies Inc., (Grand Island, N.Y.). (E)-4-(4-(dimethylamino)styryl)-1-(3-isothiocyanatopropyl)pyridin-1-ium chloride 1 was synthesized analogously to the previously reported di-butyl analog. Hassner, A., et al., J Org. Chem. 49, 2546-2551 (1984). Chemicals and solvents for synthesis and high-performance liquid chromatography (HPLC) were acquired from Sigma-Aldrich (Milwaukee, Wis.) or Fisher Scientific (Pittsburgh, Pa.), and used without further purification. HPLC was performed on an Agilent Prostar System equipped with a 325 Variable wavelength detector and controlled by Galaxie Software using a Phenomenex 4.6×250 mm Luna C18, 10 micron column. AldeRed 493 aldehyde diethyl acetal (FIGS. 14a-14b) and AldeRed 493-A (FIGS. 14c-14d) were chromatographed using Method 1. AldeRed 588 aldehyde diethyl acetal (FIGS. 15a-15b), AldeRed 588-A (FIGS. 15c-15d), AldeRed 659 aldehyde diethyl acetal (FIGS. 16a-16b), AldeRed 659-A (FIGS. 16c-16d) were chromatographed using Method 2. Method 1: Solvent A: 100% water; Solvent B: 100% methanol; 0-5 min 100% A, 5-25 min linear gradient from 100% A to 100% B, 25-30 min 100% B, 30-35 min linear gradient from 100% B to 100% A, 35-38 min 100% A, 2 mL/min. Method 2: Solvent A: 100% water; Solvent B: 100% acetonitrile; 0-20 min linear gradient from 90% A/10% B to 10% A/90% B; 20-25 min 10% A/90% B, 25-30 min linear gradient from 10% A/90% B to 90% A/10% B, 2 mL/min. ^1H-NMR spectra were obtained on a Bruker Avance 400 MHz Spectrometer. High resolution mass spectra were obtained by the University of Notre Dame Mass Spectrometry & Proteomics Facility (Notre Dame, Ind.) using ESI either by direct infusion on a Bruker micrOTOF-II or by LC elution via an ultra-high pressure Dionex® RSLC with C18 column coupled with a Bruker micrOTOF-Q II. The excitation and emission profiles of synthesized products were measured using a spectrofluorophotometer (Shimadzu, RF-5301pc, Columbia, Md.).
Three representative substrates of ALDH containing fluorophores that emit in the red region of the spectrum were synthesized (FIG. 1). […]

Row | Maximum emission wavelength [nm] | Maximum excitation wavelength [nm] | SMILES
1 | 590 | 493 | CCOC(CNC(=S)NCCC[n+]1ccc(C=Cc2ccc(N(C)C)cc2)cc1)OCC.[Cl-] [compound 4]
2 | 599 | 588 | CCOC(CNC(=O)CCc1ccc2n1[B-](F)(F)[N+]1=C(c3ccc[nH]3)C=CC1=C2)OCC [compound 5]
